Test results as given in ChEMBL document CHEMBL5244205, “Discovery of tricyclic dipyrrolopyridine derivatives as novel JAK inhibitors” (Bioorg Med Chem, 2017).

Columns and labels:
[1] = Inhibition of SYK (unknown origin); set-up: species or system Homo sapiens
[2] = Half life in Sprague-Dawley rat at 1 mg/kg, po measured up to 24 hrs by LC-MS/MS analysis; type: ADME, organism-based; conditions: in vivo
[3] = target: Insulin-like growth factor 1 receptor (Homo sapiens, UniProt P08069); assay: Inhibition of IGF1R (unknown origin)
Focal adhesion kinase 1 = Focal adhesion kinase 1 (Homo sapiens, UniProt Q05397); assay: Inhibition of FAK (unknown origin)
[4] = AUC (0 to 24 hrs) in Sprague-Dawley rat at 1 mg/kg, po measured up to 24 hrs by LC-MS/MS analysis; type: ADME, organism-based; set-up: dose 1 mg/kg, time < 24 hrs, route po; conditions: in vivo
[5] = target: Inhibitor of nuclear factor kappa-B kinase subunit beta (Homo sapiens, UniProt O14920); assay: Inhibition of IKKB (unknown origin)
[6] = Oral availability in Sprague-Dawley rat at 1 mg/kg measured up to 24 hrs by LC-MS/MS analysis; type: ADME, organism-based; conditions: in vivo
[7] = target: Epidermal growth factor receptor (Homo sapiens, UniProt P00533); assay: Inhibition of EGFR (unknown origin)
[8] = target: Casein kinase I isoform delta (Homo sapiens, UniProt P48730); assay: Inhibition of CHKdelta (unknown origin)
Ephrin type-A receptor 2 = Ephrin type-A receptor 2 (Homo sapiens, UniProt P29317); assay: Inhibition of EphA2 (unknown origin)
[9] = target: MAP kinase-activated protein kinase 2 (Homo sapiens, UniProt P49137); assay: Inhibition of MAPKAPK2 (unknown origin)
Cytochrome P450 3A4 = Cytochrome P450 3A4 (Homo sapiens, UniProt P08684); conditions: microsomes, 20 min, 5 µM
[10] = AUC (0 to 24 hrs) in Sprague-Dawley rat at 1 mg/kg, iv measured up to 24 hrs by LC-MS/MS analysis; type: ADME, organism-based; set-up: dose 1 mg/kg, time < 24 hrs, route iv; conditions: in vivo
[11] = Clearance in Sprague-Dawley rat at 1 mg/kg, iv measured up to 24 hrs by LC-MS/MS analysis; type: ADME, organism-based; conditions: in vivo
[12] = Half life in Sprague-Dawley rat at 1 mg/kg, iv measured up to 24 hrs by LC-MS/MS analysis; type: ADME, organism-based; conditions: in vivo
[13] = target: Tyrosine-protein kinase ZAP-70 (Homo sapiens, UniProt P43403); assay: Inhibition of ZAP70 (unknown origin)
[14] = target: Tyrosine-protein kinase BTK (Homo sapiens, UniProt Q06187); assay: Inhibition of BTK (unknown origin)
[15] = target: Tyrosine-protein kinase ABL1 (Homo sapiens, UniProt P00519); assay: Inhibition of ABL (unknown origin)
[16] = Tmax in Sprague-Dawley rat at 1 mg/kg, po measured up to 24 hrs by LC-MS/MS analysis; type: ADME, organism-based; conditions: in vivo
[17] = target: Tyrosine-protein kinase ITK/TSK (Homo sapiens, UniProt Q08881); assay: Inhibition of ITK (unknown origin)
Angiopoietin-1 receptor = Angiopoietin-1 receptor (Homo sapiens, UniProt Q02763); assay: Inhibition of TIE2 (unknown origin)
[18] = target: Mitogen-activated protein kinase 11 (Homo sapiens, UniProt Q15759); assay: Inhibition of P38beta (unknown origin)
[19] = Cmax in Sprague-Dawley rat at 1 mg/kg, po measured up to 24 hrs by LC-MS/MS analysis; type: ADME, organism-based; set-up: time < 24 hrs, dose 1 mg/kg, route po; conditions: in vivo
[20] = pampa, pH 6.5, 2 h
Description: Permeability of the compound in pH 6.5 incubated for 2 hrs by PAMPA based HPLC analysis

[21] = target: Mitogen-activated protein kinase kinase kinase 1 (Homo sapiens, UniProt Q13233); assay: Inhibition of MAP3K1 (unknown origin)
[22] = target: Tyrosine-protein kinase CSK (Homo sapiens, UniProt P41240); assay: Inhibition of CSK (unknown origin)
[23] = target: RAF proto-oncogene serine/threonine-protein kinase (Homo sapiens, UniProt P04049); assay: Inhibition of RAF1 (unknown origin)
[24] = Volume of distribution in Sprague-Dawley rat at 1 mg/kg, iv measured up to 24 hrs by LC-MS/MS analysis; type: ADME, organism-based; conditions: in vivo
[25] = target: Bone morphogenetic protein receptor type-1A (Homo sapiens, UniProt P36894); assay: Inhibition of BMPR1A (unknown origin)
Chain of Bone morphogenetic protein receptor type-1A (P36894 whole entry): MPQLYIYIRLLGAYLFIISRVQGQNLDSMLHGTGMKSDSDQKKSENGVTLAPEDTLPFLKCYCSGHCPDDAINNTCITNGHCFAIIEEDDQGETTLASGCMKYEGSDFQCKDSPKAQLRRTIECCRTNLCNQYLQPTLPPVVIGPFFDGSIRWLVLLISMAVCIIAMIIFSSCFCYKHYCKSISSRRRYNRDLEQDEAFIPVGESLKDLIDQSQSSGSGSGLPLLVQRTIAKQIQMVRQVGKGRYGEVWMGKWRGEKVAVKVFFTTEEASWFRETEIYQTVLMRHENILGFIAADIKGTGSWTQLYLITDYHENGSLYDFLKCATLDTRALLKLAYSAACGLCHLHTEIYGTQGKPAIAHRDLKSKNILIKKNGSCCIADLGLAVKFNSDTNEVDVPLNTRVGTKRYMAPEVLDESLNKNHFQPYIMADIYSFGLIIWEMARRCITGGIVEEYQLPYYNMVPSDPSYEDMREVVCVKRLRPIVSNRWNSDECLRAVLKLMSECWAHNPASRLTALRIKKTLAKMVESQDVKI

Chain of RAF proto-oncogene serine/threonine-protein kinase (P04049 whole entry): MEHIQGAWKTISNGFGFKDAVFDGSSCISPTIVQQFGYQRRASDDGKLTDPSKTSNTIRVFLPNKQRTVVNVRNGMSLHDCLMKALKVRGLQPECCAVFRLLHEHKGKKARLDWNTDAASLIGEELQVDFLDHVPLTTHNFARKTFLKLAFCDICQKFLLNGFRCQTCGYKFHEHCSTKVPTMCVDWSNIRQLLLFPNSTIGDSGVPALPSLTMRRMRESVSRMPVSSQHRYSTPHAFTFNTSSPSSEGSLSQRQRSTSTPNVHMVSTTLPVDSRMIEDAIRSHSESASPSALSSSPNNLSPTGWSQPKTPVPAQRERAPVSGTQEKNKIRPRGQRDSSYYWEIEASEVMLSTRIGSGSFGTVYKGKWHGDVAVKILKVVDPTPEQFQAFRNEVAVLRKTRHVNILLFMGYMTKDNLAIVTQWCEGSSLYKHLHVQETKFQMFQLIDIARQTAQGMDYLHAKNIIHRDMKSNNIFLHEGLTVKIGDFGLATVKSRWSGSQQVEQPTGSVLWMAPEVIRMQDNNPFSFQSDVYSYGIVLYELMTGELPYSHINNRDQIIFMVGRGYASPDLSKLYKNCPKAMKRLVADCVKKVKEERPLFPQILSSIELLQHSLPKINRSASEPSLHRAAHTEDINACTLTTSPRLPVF
Chain of Ephrin type-A receptor 2 (P29317 whole entry): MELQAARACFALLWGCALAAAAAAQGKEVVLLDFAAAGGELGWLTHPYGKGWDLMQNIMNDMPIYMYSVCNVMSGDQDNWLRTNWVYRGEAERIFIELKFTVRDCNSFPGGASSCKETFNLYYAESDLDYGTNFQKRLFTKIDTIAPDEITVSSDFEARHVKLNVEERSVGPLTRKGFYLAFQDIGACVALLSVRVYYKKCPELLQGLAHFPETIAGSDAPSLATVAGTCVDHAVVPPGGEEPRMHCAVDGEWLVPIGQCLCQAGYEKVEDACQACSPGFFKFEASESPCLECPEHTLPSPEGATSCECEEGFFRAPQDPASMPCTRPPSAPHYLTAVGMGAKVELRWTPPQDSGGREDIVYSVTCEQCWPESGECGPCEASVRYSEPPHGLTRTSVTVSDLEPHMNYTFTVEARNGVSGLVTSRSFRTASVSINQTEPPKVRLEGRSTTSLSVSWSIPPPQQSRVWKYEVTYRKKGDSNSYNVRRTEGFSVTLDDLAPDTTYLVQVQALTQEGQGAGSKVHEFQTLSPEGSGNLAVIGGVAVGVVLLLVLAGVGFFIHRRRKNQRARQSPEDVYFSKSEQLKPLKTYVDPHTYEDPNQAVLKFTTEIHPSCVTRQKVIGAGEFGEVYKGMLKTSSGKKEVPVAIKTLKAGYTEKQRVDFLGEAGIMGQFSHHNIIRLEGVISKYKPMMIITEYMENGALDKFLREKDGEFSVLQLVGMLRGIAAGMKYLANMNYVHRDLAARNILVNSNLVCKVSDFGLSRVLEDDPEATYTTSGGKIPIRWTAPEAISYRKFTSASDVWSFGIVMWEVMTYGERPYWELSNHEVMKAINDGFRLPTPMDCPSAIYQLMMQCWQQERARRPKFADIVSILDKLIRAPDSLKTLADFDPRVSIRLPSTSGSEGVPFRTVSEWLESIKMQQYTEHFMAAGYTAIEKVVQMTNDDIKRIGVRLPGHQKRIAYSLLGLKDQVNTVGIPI
Chain of Focal adhesion kinase 1 (Q05397 whole entry): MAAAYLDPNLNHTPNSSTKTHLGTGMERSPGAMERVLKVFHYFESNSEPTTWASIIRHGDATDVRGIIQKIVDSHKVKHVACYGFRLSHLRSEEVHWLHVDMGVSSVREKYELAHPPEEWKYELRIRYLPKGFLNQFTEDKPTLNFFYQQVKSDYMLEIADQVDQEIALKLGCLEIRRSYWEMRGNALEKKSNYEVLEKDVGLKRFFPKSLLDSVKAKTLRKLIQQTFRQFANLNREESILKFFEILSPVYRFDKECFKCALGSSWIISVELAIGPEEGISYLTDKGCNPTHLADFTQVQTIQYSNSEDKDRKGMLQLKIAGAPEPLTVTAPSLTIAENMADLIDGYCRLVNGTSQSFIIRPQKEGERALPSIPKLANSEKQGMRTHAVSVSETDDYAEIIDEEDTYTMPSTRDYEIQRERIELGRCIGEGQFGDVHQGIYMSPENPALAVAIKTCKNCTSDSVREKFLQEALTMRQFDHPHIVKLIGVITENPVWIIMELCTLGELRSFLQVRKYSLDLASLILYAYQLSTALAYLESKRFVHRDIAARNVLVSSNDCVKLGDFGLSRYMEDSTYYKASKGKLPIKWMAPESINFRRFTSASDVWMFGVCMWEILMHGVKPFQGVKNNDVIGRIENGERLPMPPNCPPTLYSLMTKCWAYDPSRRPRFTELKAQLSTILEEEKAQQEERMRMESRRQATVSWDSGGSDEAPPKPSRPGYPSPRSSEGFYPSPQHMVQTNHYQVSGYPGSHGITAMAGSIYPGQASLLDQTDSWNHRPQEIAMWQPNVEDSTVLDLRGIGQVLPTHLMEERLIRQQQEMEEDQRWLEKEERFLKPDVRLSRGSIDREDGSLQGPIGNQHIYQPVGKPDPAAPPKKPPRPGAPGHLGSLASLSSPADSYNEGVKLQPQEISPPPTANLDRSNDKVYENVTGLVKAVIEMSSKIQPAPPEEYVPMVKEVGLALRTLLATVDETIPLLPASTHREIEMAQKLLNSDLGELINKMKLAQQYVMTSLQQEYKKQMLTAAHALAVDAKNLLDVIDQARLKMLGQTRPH
Chain of MAP kinase-activated protein kinase 2 (P49137 whole entry): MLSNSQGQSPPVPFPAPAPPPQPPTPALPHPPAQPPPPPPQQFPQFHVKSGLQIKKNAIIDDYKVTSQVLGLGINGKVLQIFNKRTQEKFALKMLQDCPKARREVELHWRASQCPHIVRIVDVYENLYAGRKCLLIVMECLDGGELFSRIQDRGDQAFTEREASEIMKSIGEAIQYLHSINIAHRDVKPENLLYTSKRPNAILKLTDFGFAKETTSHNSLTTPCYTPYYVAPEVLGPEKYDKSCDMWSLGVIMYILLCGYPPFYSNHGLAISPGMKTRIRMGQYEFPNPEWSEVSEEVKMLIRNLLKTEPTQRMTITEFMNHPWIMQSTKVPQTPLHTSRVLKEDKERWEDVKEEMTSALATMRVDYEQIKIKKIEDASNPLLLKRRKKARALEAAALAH
Chain of Tyrosine-protein kinase ITK/TSK (Q08881 whole entry): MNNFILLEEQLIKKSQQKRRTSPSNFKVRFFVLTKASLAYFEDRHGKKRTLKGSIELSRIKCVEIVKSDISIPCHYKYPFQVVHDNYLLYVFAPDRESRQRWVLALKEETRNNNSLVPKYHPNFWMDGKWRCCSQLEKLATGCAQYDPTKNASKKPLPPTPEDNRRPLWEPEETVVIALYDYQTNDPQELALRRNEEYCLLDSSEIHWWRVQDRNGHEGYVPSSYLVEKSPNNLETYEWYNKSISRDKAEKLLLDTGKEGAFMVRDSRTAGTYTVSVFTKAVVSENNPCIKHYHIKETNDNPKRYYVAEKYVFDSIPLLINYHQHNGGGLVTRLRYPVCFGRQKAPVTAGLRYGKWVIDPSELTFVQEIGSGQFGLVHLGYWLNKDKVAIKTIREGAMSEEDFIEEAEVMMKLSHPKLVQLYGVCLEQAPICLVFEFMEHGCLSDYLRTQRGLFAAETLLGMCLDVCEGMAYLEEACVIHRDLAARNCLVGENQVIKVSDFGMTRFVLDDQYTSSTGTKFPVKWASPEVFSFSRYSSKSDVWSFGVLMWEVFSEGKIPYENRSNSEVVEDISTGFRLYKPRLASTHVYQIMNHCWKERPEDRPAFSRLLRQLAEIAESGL
Chain of Tyrosine-protein kinase BTK (Q06187 whole entry): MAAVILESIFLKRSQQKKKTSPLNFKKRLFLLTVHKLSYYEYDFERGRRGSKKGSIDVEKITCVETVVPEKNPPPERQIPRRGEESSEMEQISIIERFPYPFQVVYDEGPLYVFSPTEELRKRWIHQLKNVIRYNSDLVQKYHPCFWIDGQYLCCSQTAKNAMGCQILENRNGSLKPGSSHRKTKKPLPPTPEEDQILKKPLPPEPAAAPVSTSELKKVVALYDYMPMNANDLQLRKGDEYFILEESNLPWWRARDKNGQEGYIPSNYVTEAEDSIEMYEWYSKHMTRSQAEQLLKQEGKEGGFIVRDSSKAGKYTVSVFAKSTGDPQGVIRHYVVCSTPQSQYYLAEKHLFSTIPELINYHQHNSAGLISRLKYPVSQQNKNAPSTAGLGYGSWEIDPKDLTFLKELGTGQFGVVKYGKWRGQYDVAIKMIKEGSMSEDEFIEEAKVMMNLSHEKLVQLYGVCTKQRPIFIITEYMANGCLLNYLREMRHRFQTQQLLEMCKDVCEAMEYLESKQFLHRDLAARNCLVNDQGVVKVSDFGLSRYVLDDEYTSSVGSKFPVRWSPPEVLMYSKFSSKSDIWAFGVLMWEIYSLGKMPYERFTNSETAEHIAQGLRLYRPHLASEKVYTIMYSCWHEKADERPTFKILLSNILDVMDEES

- IC50 [1]: > 1000 nM
- half-life [2]: 3.99 h
- IC50 [3]: > 1000 nM
- IC50 (Focal adhesion kinase 1): > 1000 nM
- AUC(0-t) at 24 h [4]: 916 ng·h/mL
- IC50 [5]: > 1000 nM
- bioavailability [6]: 82.4%
- IC50 [7]: > 1000 nM
- IC50 [8]: > 1000 nM
- IC50 (Ephrin type-A receptor 2): > 1000 nM
- IC50 [9]: > 1000 nM
- TDI (Cytochrome P450 3A4): 93%
- AUC(0-t) at 24 h [10]: 1110 ng·h/mL
- clearance [11]: 20.2 mL/min/kg
- half-life [12]: 7.86 h
- IC50 [13]: > 1000 nM
- IC50 [14]: > 1000 nM
- IC50 [15]: > 1000 nM
- Tmax [16]: 0.33 h
- IC50 [17]: > 1000 nM
- IC50 (Angiopoietin-1 receptor): > 1000 nM
- IC50 [18]: > 1000 nM
- Cmax [19]: 178 ng/mL
- permeability [20]: 14 10^-6 cm/s
- IC50 [21]: > 1000 nM
- IC50 [22]: > 1000 nM
- IC50 [23]: > 1000 nM
- Vd [24]: 0.97 L/kg
- IC50 [25]: > 1000 nM
Compound: C[C@@H]1CCN(C(=O)CC#N)C[C@@H]1n1ccc2cnc3[nH]cc(C#N)c3c21
